Where two headings read alike, the source gives them in different places.
How the values were obtained:
Zebrafish embryos [1] = assay: Zebrafish embryo model system: embryos exposed to compound in medium, cell division observed; assay type: in vivo, Zebrafish (Danio rerio); conditions: for inhibition of mitosis in treated embryos: 10 μM to 4 mM in medium; for effect on embryo development: 120 minutes; for effect on embryo cell division: thirty minutes after treatment
Procedure: Two-cell stage Zebrafish embryos were dechorionated with 1% trypsin-EDTA and treated with 1% DMSO at a temperature of 28.5° C. Zebrafish embryos were removed from their chorions by mild digestion in 1% Trypsin-EDTA (Sigma, St. Louis, Mo.) for 10 minutes at 28.5° C. (Standard temperature - ST), washed three times in “egg water” and twice in “embryonic medium” (EM) as described in Westerfield, M., The Zebrafish Book, Supra. The dechorionated two-cell stage cleaving eggs/embryos were transferred to the 24-well plastic cell culture plates (Costar, Cambridge, Mass.) filled with EM. Dechorionated embryos (10-12 per well) were exposed to VDC and VDacac at a constant ST for 0.5-24 hours. The final volume of the medium in each well was 500 μL. Both compounds were used at concentrations ranging from 10 μM to 4 mM. The compounds were dissolved in DMSO and then diluted serially with the incubation medium. The final concentration of DMSO in the wells was 1.2%. The sham-treated control embryos were incubated in EM in the presence of 1.2% DMSO.
(§1) Observations of cell division and development of the Zebrafish embryos were carried out using a SMZ-10A stereo microscope, once every 30 minutes within the first 3 hours of incubation and at 6, 12 and 24 hours, as well. […] The stereo microscope was fitted with a specially designed transparent heating tray in order to keep embryos at ST during observations. Pictures of the embryos were taken with a H-III Photomicrographic System (Nikon) using Ektachrome 64X film (Kodak, Rochester, N.Y.).

Zebrafish embryos [2] = assay: Microinjection of Zebrafish embryos, cell division and development observed; assay type: in vivo, Zebrafish (Danio rerio)
From the text: VDC and VDacac were microinjected into Zebrafish embryos at room temperature, using a SMZ-10A stereo microscope (Nikon, Melville, N.Y.) and Transjector 5246 (Eppendorf, Westbury, N.Y.). Dechorionated Zebrafish embryos at the two-cell stage were transferred to a Petri dish filled with embryonic medium. The bottom of the Petri dish was covered with an agar layer, and the embryos were placed in grooves in agar, exactly as described in Westerfield, M., The Zebrafish Book, Supra. Microinjections were performed under visual control. At the 2-4 cell stage, approximately 2 nL of the compound dissolved in Hank's Balanced Salt Solution (HBSS) (Gibco, Rockville, Md.) with 10% DMSO was injected into the cytoplasm of one of the blastomeres through a constantly flowing micropipette with a splinted sharp tip of 2-3 μm diameter. Sham-treated control embryos were injected with 2 nL of HBSS containing 10% DMSO. After the treatment, the embryos were transferred to standard temperature, 28.5° C.
as §1

[3] = tested on: germinal vesicle stage bovine oocytes; conditions: 24 hours; for oocytes matured to metaphase of meiosis II (MII): control 93%
Procedure: Immature oocytes were recovered from bovine ovaries after slaughter by aspiration of 5 mm follicles. Only oocytes having a homogenous cytoplasm and surrounded by at least three layers of cumulus cells were selected. These were washed through three rinses of Hepes buffered Tyrode's media (114 mM NaCl, 3.2 mM KCl, 2 mM CaCl22H2O, […] MgCl26H2O, 25 mM NaHCO3, 0.4 mM NaH2PO4, 10 mM Na lactate, 100 I.U./ml Penicillin)(TL-Stock) modified with 10 mM Hepes, 1 mg/ml BSA, 0.2 mM pyruvate, and 25 μg/ml gentamicin (TL-Hepes; (16). Oocytes were matured for 24 hours in 50 μl drops of TC199 modified with 10% fetal bovine serum, 5 μg/ml FSH-p, 25μg/ml gentamicin, 1 μg/ml estrogen at 39° C. in 5% CO2 under mineral oil (17). After the oocytes were placed in the drops, 25 or 50 μM VDC was added in DMSO. Equal amounts of DMSO were added to control drops. Bovine oocytes were processed for immunocytochemistry after 24 hours.
Germinal vesicle stage bovine oocytes were matured in vitro in the presence of vehicle or VDC (25 μM or 50 μM). After 24 hours, these oocytes were fixed, labeled with anti-tubulin antibodies and the DNA dye TOTO−3. Oocytes were scored according to their stage in meoisis, microtubule organization and chromosome number.

[4] = tested on: BT-20 breast cancer cells; assay: MTT cytotoxicity assay; assay type: cell-based, human; conditions: BT20, 48 hours; read-out: IC50 (inhibition of cellular proliferation, MTT)
Procedure: (§2) BT-20 and MDA-MB-231 breast cancer cells (HTB-19, HTB-26 ATCC, Rockville, Md.) and U373 glioblastoma cells (HTB-17 ATCC Rockville, Md.) were grown in MEM media modified with 10% Fetal Bovine serum and 1% Penicillin/Streptomycin (Life Technologies, Rockville Md.). Cells were seeded onto sterile 22 mm square coverslips in 6-well plates. Cells on coverslips were kept in an incubator for 24 hours prior to treatment. The following day, VDC or VDacac was added from a stock solution made in DMSO to yield final concentration ranging from 3.9 to 500 μM (final DMSO concentration=0.025%). Cells were returned to a 37° C. incubator for 24 hours.
(§3) The cytotoxicity of VDC and VDacac against the human tumor cell lines discussed above was assayed using the MTT (3-[4,5-dimethylthiazol-2-yl]-2,5-diphenyl tetrazolium bromide) assay (Boehringer Mannheim Corp., Indianapolis, Ind.). Briefly, exponentially growing tumor cells were seeded into a 96-well plate at a density of 2.5×10^4 cells/well and incubated for 36 hr at 37° C. prior to drug exposure. On the day of treatment, culture medium was carefully aspirated from the wells and replaced with fresh medium containing VDC or VDacac at concentrations ranging from 3.9 to 500 μM. Triplicate wells were used for each treatment. The cells were incubated with the vanadium compounds for 48 hours at 37° C. in a humidified 5% CO2 atmosphere. To each well, 10 μl of MTT (0.5 mg/ml final concentration) was added and the plates were incubated at 37° C. for 4 hours to allow MTT to form formazan crystals by reacting with metabolically active cells. The formazan crystals were solubilized overnight at 37° C. in a solution containing 10% SDS in 0.01 M HCl. The absorbence of each well was measured in a microplate reader (Labsystems, Helsinki, Finland) at 540 nm and a reference wavelength of 690 nm. To translate the OD540 values into the number of live cells in each well, the OD540 values were compared to those on standard OD540—versus—cell number curves generated for each cell line. The percent survival was calculated using the formula: % survival=Live cell number[test]/Live cell number [control]×100. The IC50 values were calculated by non-linear regression analysis using Graphpad Prism software version 2.0 (Graphpad Software, Inc., San Diego, Calif.).

[5] = tested on: MDA-MB-231 breast cancer cells; assay: MTT cytotoxicity assay; assay type: cell-based, human; conditions: MDA-MB-231, 48 hours; read-out: IC50 (inhibition of cellular proliferation, MTT)
Procedure: as §2, §3

U373 glioblastoma cells = assay: MTT cytotoxicity assay; assay type: cell-based, human; conditions: U373, 48 hours; read-out: IC50 (inhibition of cellular proliferation, MTT)
Procedure: as §2, §3

[6] = tested on: BT-20 breast cancer cells; assay: Immunocytochemistry and confocal microscopic analysis of mitotic spindles; assay type: cell-based, human; conditions: BT-20 cells; for mitotic spindle morphology (α-tubulin, DNA): confocal microscopy
Procedure: as §2
At the appropriate time point, coverslips containing BT-20 cells were fixed in −20° C. methanol for 15 minutes followed by 15 minutes incubation in phosphate buffered saline +0.1% Triton X-100 (PBS+Tx). Coverslips were next incubated with a primary antibody recognizing α-tubulin (Sigma, St.Louis Mo.) γ-tubulin (BAbCo, Berkeley Calif.), or NuMA (Calbiochem, SanDiego Calif.) for 40 minutes in a humidified chamber at 37° C. Coverslips were washed for 15 minutes in PBS-Tx followed by a 40 min incubation with a fluorescently labeled secondary antibody (Jackson Immunoresearch, West Grove Pa.). For double labeling the respective primary and secondary antibodies were combined. The coverslips were again rinsed in PBS-Tx and incubated with 5 μM Toto−3 (Molecular Probes, Eugene Oreg.) for 20 minutes to label the DNA. Coverslips were immediately inverted onto slides in Vectashield (Vector Labs, Burlingame, N.H.) to prevent photobleaching, sealed with nail polish and stored at 4° C. Bovine oocytes were processed for immunocytochemistry as described previously. Navara et al., Dev. Biol., 162: 29-40, 1994.
Slides were examined using a Bio-Rad MRC-1024 Laser Scanning Confocal Microscope mounted on a Nikon Eclipse E800 upright microscope with high numerical aperture objectives. Digital data was processed using Lasersharp (Bio-Rad, Hercules Calif.) and Photoshop (Adobe Systems Mountain View Calif.) software and printed on a Pictrography printer (Fuji Photo Elmsford, N.Y.).

[7] = tested on: dynein ATPase activity found in sperm axonemes; conditions: 100 μM
Procedure: The effect of VDC on ATPase and GTPase activity was determined by isolating sperm axonemes after treatment of human sperm with 100 μM VDC. Sperm were pelleted by centrifugation 1900×g for 15 min, washed twice in cold PBS, resuspended in extraction buffer (1.0% Triton X-100, 0.1 M NaCl, 4 mM MgSO4, 1 mM CaCL2, 0.1 mM EDTA, 0.1 mM ATP, 7 mM 2-mercaptoethanol, and 5 mM imidazole buffer pH 7.0) and disrupted using a Dounce homogenizer. This homogenized suspension was centrifuged at 1500×g for 5 min to remove sperm heads and the resulting supernatant was recentrifuged at 12,000×g to recover the broken axonemes.
The axoneme pellet was resuspended in extraction buffer to remove residual membrane material, centrifuged at 1500×g for 5 min to remove residual sperm heads followed by centrifugation at 12,000×g to recover axonemes. The recovered axonemes were washed three times in extraction buffer lacking Triton X-100 and resuspended in solubilization buffer (0.6 M NaCl, 4 mM MgSO4, 1 mM CaCl2, 0.1 mM EDTA, 1 mM DTT, 7 mM 2-mercaptoetanol, 5 mM imidazole buffer pH 7.0) to solubilize the readily extractable motor protein dynein. The suspension was then centrifuged at 12,000×g. […] ATPase activity was measured using the EnzChek Phophate assay kit (Molecular Probes, Eugene Oreg.) according to manufacturers instructions.

tumor cell = conditions: Kopf-Maier et al. 1983; cited from earlier work
pharyngonasal cancer = conditions: single assay, Sakurai et al. 1995; cited from earlier work

Molecule: Vanadocene dichloride [VDC]
- inhibition of mitosis in treated embryos (Zebrafish embryos [1]): inhibited mitosis in a concentration-dependent fashion
- effect on embryo development (Zebrafish embryos [1]; 0.76 mM): developed abnormal blastulae
- effect on embryo cell division (Zebrafish embryos [1]; 1.9 mM): cell division defects followed by fusion of the embryonic cells
- effect on embryonic development after microinjection (Zebrafish embryos [2]; 0.64 pmol microinjected (lowest)): formation of a blastocoel-like cavity in the blastoderm and prevented gastrulation
- effect on embryonic development after microinjection (Zebrafish embryos [2]; 32 pmol microinjected (higher)): cell division slow-down and total disarray of cell localization and development arrest
- effect on embryonic development after microinjection (Zebrafish embryos [2]; 58 pmol microinjected (highest)): total cell fusion within 30 minutes of microinjection
- oocytes matured to metaphase of meiosis II (MII) ([3]; 25 μM): 16.2%
- oocytes matured to metaphase of meiosis II (MII) ([3]; 50 μM): 10.0%
- oocytes with abnormal meiotic spindles ([3]; 25 or 50 μM, control 4%): ≥ 50%
- IC50 [4]: 14.9 µM
- IC50 [5]: 11 µM
- IC50 (U373 glioblastoma cells): 18.6 µM
- NuMA localization [6]: only localized to one side of the mitotic spindle
- γ-tubulin spindle pole labeling [6]: two foci of γ-tubulin on the same side of the chromosomes
- mitotic spindle morphology (α-tubulin, DNA) [6]: aberrant monopolar mitotic structures
- inhibition of ATPase activity found in axonemes ([7]; four separate experiments): 12.2%
- ATPase activity found in axonemes ([7]; control 0.08±0.01): 0.07±0.02
- tumor cell growth (tumor cell): arrest tumor cell growth

Molecule: CC(=O)C=C(C)[O-].O=S(=O)([O-])C(F)(F)F.[V+4].c1cc[cH-]c1.c1cc[cH-]c1 [VDacac, Vanadocene acetylacetonato monotriflate]
- inhibition of mitosis in treated embryos (Zebrafish embryos [1]): inhibited mitosis in a concentration-dependent fashion
- effect on embryo development (Zebrafish embryos [1]; 0.4 mM): developed similar defects
- effect on embryo cell division (Zebrafish embryos [1]; 0.6 mM): cell division defects followed by fusion of the embryonic cells
- effect on embryonic development after microinjection (Zebrafish embryos [2]; 1 pmoL microinjected (lower)): formation of a blastocoel-like cavity in the blastoderm and prevented gastrulation
- effect on embryonic development after microinjection (Zebrafish embryos [2]; 49 pmoL microinjected (higher)): deterioration of cell localization and development failure
- IC50 [4]: 26.9 µM
- IC50 [5]: 9.1 µM
- IC50 (U373 glioblastoma cells): 35.5 µM
- mitotic spindle morphology (α-tubulin, DNA) [6]: aberrant monopolar mitotic structures

Molecule: O.O.O=S(=O)([O-])[O-].[O]=[V+2].c1cnc2c(c1)ccc1cccnc12 [[VO(Phen)(H2O)2](SO4), (diaqua)(1,10-phenanthroline)oxovanadium (IV) sulfate]
- activity against pharyngonasal cancer (pharyngonasal cancer): active agent against pharyngonasal cancer

Reference: patent US6642221B1, “Vanadium compounds as anti-proliferative agents” (Parker Hughes Institute, priority 2000, dated 2003)
